From paper PMC3519909 (PLoS Biology, 2012)

How the values were obtained:
K. lactis [GI: 50312678] = biological target: T1, K. lactis [GI: 50312678] (Kluyveromyces lactis, UniProt Q6CSK8); assay: glucose oxidase/peroxidase coupled glucose release; format: biochemical; conditions: Michaelis-Menten or Hill fit
T1 construct: gene KLLA0_B00242g

Ima5 = biological target: T2, Ima5 (Saccharomyces cerevisiae, UniProt P40884); assay: glucose release, crude extract of IMA5-overexpressing yeast; format: biochemical; conditions: relative to ima5 deletion mutant
T2 construct: crude extract of yeast overexpressing IMA5, compared with ima5 deletion mutant
T2 sequence (P40884 1-581): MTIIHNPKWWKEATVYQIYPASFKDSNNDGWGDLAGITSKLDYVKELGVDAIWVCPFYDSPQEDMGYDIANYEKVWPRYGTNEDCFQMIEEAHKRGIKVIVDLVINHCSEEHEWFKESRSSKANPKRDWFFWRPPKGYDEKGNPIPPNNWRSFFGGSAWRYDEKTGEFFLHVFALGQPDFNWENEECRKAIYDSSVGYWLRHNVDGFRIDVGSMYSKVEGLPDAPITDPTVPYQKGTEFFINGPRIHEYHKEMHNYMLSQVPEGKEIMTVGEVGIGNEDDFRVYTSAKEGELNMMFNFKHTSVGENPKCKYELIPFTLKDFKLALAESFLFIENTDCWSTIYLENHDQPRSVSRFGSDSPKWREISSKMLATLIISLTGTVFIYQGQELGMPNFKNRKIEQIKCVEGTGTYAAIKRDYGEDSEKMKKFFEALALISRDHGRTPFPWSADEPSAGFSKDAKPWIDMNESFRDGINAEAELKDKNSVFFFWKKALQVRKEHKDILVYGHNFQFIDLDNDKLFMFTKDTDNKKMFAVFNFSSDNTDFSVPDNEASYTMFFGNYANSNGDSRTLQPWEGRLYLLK

[1] = substrate: CO[C@H]1O[C@H](CO)[C@@H](O)[C@H](O)[C@H]1O; assay: glucose oxidase/peroxidase coupled glucose release; format: biochemical, Saccharomyces cerevisiae; conditions: Michaelis-Menten or Hill fit

T1 sequence (Q6CSK8 entry or part of it): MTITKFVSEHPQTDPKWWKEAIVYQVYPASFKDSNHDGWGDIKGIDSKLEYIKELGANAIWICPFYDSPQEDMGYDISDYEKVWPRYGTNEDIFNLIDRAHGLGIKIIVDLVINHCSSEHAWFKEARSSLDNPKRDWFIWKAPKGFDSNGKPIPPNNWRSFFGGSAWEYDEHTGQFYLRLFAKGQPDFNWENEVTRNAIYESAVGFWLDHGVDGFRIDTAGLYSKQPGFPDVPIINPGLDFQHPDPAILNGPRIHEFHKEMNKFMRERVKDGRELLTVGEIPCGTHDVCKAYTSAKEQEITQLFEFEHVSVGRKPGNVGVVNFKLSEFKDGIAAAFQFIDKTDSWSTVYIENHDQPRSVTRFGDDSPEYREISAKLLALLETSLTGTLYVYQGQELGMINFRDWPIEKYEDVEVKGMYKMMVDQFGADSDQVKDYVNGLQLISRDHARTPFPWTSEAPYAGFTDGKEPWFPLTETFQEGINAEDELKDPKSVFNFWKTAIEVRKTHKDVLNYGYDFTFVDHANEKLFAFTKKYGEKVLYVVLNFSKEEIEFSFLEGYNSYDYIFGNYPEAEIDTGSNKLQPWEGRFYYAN

**Q.** `OC[C@H]1O[C@H](O[C@H]2[C@H](O)[C@@H](O)C(O)O[C@@H]2CO)[C@H](O)[C@@H](O)[C@@H]1O` (stereo partly shown) [maltose] was tested. Which Km (K. lactis [GI: 50312678]) did it give?
**A.** Its Km is “one of the paralogs retains the broad specificity of ancMalS”.

**Q.** Which relative activity (Ima5) does the source give for `OC[C@H]1O[C@H](OC[C@H]2OC(O)[C@H](O)[C@@H](O)[C@@H]2O)[C@H](O)[C@@H](O)[C@@H]1O` (stereo partly shown) [isomaltose] here?
**A.** The relative activity was “relative enzyme activity in crude extracts derived from a yeast strain overexpressing IMA5”.

B1: Ima1 (Saccharomyces cerevisiae S288C) (protein)
chain: TISSAHPETEPKWWKEATFYQIYPASFKDSNDDGWGDMKGIASKLEYIKELGADAIWISPFYDSPQDDMGYDIANYEKVWPTYGTNEDCFALIEKTHKLGMKFITDLVINHCSSEHEWFKESRSSKTNPKRDWFFWRPPKGYDAEGKPIPPNNWKSYFGGSAWTFDEKTQEFYLRLFCSTQPDLNWENEDCRKAIYESAVGYWLDHGVDGFRIDVGSLYSKVVGLPDAPVVDKNSTWQSSDPYTLNGPRIHEFHQEMNQFIRNRVKDGREIMTVGEMQHASDETKRLYTSASRHELSELFNFSHTDVGTSPLFRYNLVPFELKDWKIALAELFRYINGTDCWSTIYLENHDQPRSITRFGDDSPKNRVISGKLLSVLLSALTGTLYVYQGQELGQINFKNWPVEKYEDVEIRNNYNAIKEEHGENSEEMKKFLEAIALISRDHARTPMQWSREEPNAGFSGPSAKPWFYLNDSFREGINVEDEIKDPNSVLNFWKEALKFRKAHKDITVYGYDFEFIDLDNKKLFSFTKKYNNKTLFAALNFSSDATDFKIPNDDSSFKLEFGNYPKKEVDASSRTLKPWEGRIYISE
notes: purified present-day enzyme; expression details in Text S1
**Q.** How did the Km [1] turn out when B1 was run?
**A.** The Km was 16.40 ± 0.73 mM.

**Q.** What about the kcat [1] of the same molecule?
**A.** The kcat was 0.2688 ± 0.00167 s⁻¹.
